Read-outs that look alike come from different tables or passages of the source.
What was measured:
Format in all cases: biochemical
HDAC 4 = molecular target: T1, HDAC 4 (Homo sapiens, UniProt P56524); experiment: HDAC 4 Assay
T1 construct: The His-tagged HDAC 4, wild-type catalytic domain, was expressed in E. coli; His tag; made in house; host or cells: E. coli BL21 Star (DE3)

HDAC 1 = HDAC 1 (Homo sapiens, UniProt Q13547); experiment: HDAC1 activity, assays described on pages 104 to 106 of WO 2006/061638
HDAC 6 = molecular target: T2, HDAC 6 (Homo sapiens, UniProt Q9UBN7); experiment: HDAC 6 Assay
T2 construct: made in house
T2 sequence (Q9UBN7 1-1215): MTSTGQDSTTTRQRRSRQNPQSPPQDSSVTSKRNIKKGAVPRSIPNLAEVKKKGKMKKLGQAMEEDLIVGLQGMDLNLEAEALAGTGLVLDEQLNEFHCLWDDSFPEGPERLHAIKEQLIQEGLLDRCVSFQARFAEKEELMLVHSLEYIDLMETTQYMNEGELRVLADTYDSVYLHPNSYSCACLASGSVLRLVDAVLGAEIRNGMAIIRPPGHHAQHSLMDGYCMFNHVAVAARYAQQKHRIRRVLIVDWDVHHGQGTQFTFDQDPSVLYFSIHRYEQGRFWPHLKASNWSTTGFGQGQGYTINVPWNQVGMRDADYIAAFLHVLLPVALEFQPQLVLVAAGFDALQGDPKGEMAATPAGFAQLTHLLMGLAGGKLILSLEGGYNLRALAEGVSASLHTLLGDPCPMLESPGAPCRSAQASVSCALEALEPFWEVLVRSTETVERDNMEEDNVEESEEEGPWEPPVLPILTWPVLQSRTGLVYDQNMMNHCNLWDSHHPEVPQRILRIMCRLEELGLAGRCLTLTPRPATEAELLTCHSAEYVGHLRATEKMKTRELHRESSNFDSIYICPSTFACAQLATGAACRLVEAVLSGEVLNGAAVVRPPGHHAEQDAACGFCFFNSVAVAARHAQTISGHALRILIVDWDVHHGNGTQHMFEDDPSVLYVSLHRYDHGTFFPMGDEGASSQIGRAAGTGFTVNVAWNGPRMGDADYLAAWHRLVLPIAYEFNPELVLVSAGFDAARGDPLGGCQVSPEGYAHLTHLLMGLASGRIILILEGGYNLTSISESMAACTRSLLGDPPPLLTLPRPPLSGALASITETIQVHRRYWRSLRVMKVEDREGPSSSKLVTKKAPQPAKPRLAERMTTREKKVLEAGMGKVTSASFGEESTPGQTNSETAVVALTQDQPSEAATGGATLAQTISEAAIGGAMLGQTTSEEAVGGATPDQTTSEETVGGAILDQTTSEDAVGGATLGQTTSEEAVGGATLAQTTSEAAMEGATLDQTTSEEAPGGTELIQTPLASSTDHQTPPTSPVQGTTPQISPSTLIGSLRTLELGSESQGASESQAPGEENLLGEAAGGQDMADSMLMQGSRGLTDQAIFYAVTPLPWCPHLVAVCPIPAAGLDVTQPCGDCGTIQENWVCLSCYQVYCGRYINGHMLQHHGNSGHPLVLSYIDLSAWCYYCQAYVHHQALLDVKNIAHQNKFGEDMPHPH

T1 sequence (P56524 655-1084 limits assumed): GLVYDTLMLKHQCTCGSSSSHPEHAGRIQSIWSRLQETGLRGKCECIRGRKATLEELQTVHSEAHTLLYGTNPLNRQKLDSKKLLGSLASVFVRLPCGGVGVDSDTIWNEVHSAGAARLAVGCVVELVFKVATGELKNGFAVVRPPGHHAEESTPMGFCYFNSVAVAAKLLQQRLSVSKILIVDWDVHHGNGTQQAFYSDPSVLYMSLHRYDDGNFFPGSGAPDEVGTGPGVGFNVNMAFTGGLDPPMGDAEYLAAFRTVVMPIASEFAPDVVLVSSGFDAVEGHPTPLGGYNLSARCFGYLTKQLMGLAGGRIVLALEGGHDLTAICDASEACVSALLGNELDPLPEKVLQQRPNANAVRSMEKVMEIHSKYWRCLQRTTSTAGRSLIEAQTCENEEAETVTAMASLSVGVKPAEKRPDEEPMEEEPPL
Chain of HDAC 1 (Q13547 whole entry): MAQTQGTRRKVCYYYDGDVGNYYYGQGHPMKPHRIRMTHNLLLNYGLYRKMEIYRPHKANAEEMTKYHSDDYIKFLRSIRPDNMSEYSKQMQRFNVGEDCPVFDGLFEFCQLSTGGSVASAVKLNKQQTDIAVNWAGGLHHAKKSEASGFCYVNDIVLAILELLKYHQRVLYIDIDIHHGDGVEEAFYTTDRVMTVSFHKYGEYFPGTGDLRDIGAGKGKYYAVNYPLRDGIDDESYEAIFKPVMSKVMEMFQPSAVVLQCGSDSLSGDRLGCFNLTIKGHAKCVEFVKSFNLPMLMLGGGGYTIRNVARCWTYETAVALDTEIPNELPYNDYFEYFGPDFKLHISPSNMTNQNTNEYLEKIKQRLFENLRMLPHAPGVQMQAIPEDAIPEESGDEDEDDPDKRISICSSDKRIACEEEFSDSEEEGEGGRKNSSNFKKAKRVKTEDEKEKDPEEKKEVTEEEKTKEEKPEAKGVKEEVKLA

SMILES: C[C@@H](NC(=O)c1ccc(C(=O)C(F)(F)F)s1)c1ccccc1 [Example 8, N-[(1R)-1-phenylethyl]-5-(trifluoroacetyl)thiophene-2-carboxamide]
- selectivity for Class II HDAC (HDAC 4 and 6) over Class I (HDAC 1) (HDAC 4; HDAC 4 and 6 versus HDAC 1): showed selectivity for Class II HDAC (HDAC 4 and 6) over Class I (HDAC 1)
- IC50 (HDAC 4; read-out: HDAC 4 IC50): 95 nM
- IC50 (HDAC 1): 710 nM
- IC50 (HDAC 6): 350 nM

SMILES: C[C@@H](NC(=O)c1ccc(C(=O)NO)s1)c1ccccc1 [N-hydroxy-N′-[(1R)-1-phenytethyl]thiophene-2,5-dicarboxamide]
- IC50 (HDAC 4; not active up to the stated concentration, read-out: HDAC 4 IC50, Not active up to): > 1000 nM
- IC50 (HDAC 1): 6 nM
- inhibition at 0.001 µM (HDAC 6; @ 1 nM, read-out: HDAC 6 % inh.): 50%

SMILES: CC(/C=C/C(=O)NO)=C\[C@@H](C)C(=O)c1ccc(N(C)C)cc1 [TSA, trichostatin A]
- inhibition at 1 µM (HDAC 4; @ 1000 nM, read-out: HDAC 4 % inh.): 42%

— US7977374B2, “Thiophene and thiazole substituted trifluoroethanone derivatives as histone deacetylase (HDAC) inhibitors” (Istituto Di Ricerche Di Biologia Molecolare P. Angeletti SPA, priority 2005, dated 2011)
